# In patent publication US6987093B2 (priority 2001, dated 2006):
# Assays:
# H. influenzae [1] = assay: Study 95-001 otitis media caused by H. influenzae; type: in vivo, human; conditions: 3-day regimen (10 mg/kg/day); 13 patients; follow-up
# Protocol: Specimens for culture and susceptibility testing were obtained from the infected ear by tympanocentesis within 24 h of start of therapy. […] However, the study was evaluated using the breakpoints in the most recent set of guidelines.
# To be a bacteriological cure, the MITT subject had to have a positive culture from the middle ear for S. pneumoniae, H influenzae, or M. catarrhalis. Eradication was defined as presumed eradication of pretreatment pathogen(s) based on signs/symptoms or unavailability of culturable material. All evaluable patients had only one of the bacterial species present at baseline. There was no bacteriological response data collected for 95–001. However, the clinical outcome by bacterial pathogen at follow-up (approximately 28 days after first visit) was collected. For patients with S. pneumoniae as the baseline pathogen, all treatment arms yielded 100% clinical cure when the investigators' evaluations that were missing are not included in the analysis. […] The comparator drug, ceftriaxone, had no failures out of 9 patients.
# acute otitis media = assay: Single 30 mg/kg dose azithromycin pediatric acute otitis media trial (Study A0661015), all subjects
# Text: Craig, W. A., “Postantibiotic effects and the dosing of Macrolides, azalides, and streptogramins”, In: Zinner, S. H. et al. (editor) Expanding Indications for New Macrolides, Azalides, and Streptogramins, New York: Marel Dekker (1997), pp. 27–38.
# (§1) Children six months to twelve years were enrolled if they had symptoms and signs of acute otitis media (“AOM”) for less than four weeks and middle ear effusion by acoustic reflectometry. Symptoms necessary for enrollment included ear pain or fullness, discharge from the external auditory canal, decreased hearing or fever. On physical examination they must have had one or more of the following: bulging or marked erythema of the tympanic membrane, loss of the normal light reflex or tympanic membrane landmarks, or impaired tympanic mobility on biphasic pneumatic otoscopy. The effusion was to be documented by acoustic reflectometry with an abnormal reading of 3 or higher.
# (§2) Samples of middle ear fluid were obtained by tympanocentesis or, in the case of a perforated tympanic membrane, by swab. Middle ear fluid samples were obtained for culture at baseline. […] Children who vomited within thirty minutes of dosing were redosed.
# (§3) A phone contact occurred on study day 5 to assess for adverse events followed by visits on days 10 and 24–28, at which time detailed clinical assessments were made and adverse events were recorded. Definitions included clinical cure (complete resolution of all signs and symptoms of AOM); improvement (partial resolution of signs and symptoms); or failure (no change or worsening of signs and symptoms, or requirement for additional antibiotic therapy for AOM). Any patient considered to have failed therapy was to have a repeat tympanocentesis.
# (§4) The primary endpoint of the trial was the investigator designated cure rate at Day 24–28 for which a 95% confidence interval was computed using the normal approximation to the binomial distribution. Other endpoints analyzed included the clinical response rate by baseline pathogen at Day 24–28, the overall clinical response at Day 10, the percentage of subjects with individual signs and symptoms, as well as findings from pneumatic otoscopy and acoustic reflectometry. Only Streptococcus pneumoniae, Moraxella catarrhalis and Haemophilus influenzae were considered baseline pathogens for the purposes of these analyses.
# This trial was an open-label, non-comparative study conducted at twenty-two sites from the United States, Costa Rica, Guatemala and Chile.
# Not all strains are equally virulent and the growth rate and kinetics of infection may influence the outcome. In addition, H. influenzae has been a difficult organism to culture from the middle ear.
# H. influenzae [2] = assay: Single dose azithromycin pediatric AOM trial, subjects with H. influenzae at baseline; type: in vivo, human
# Text: as §1, §2
# Samples of middle ear fluid were split for storage at a central laboratory and cultured locally.
# as §3
# as §4, with “Only Streptococcus pneumoniae, Moraxella catarrhalis and Haemophilus influenzae were considered baseline pathogens for the purposes of these analyses.” left out
smiles,measurement,setting,value
"CC[C@H]1OC(=O)[C@H](C)[C@@H](O[C@H]2C[C@@](C)(OC)[C@@H](O)[C@H](C)O2)[C@H](C)[C@@H](O[C@@H]2O[C@H](C)C[C@H](N(C)C)[C@H]2O)[C@](C)(O)C[C@@H](C)CN(C)[C@H](C)[C@@H](O)[C@]1(C)O [Azithromycin, 9a-aza-9a-methyl-9-deoxo-9a-homoerythromycin A]",failures,H. influenzae [1],2
same,children with acoustic reflectometry scores improved from baseline,acute otitis media; by day 24–28,83%
same,children with completely normal acoustic reflectometry readings,acute otitis media; by day 24–28,53%
same,patients with complete resolution of baseline symptoms,acute otitis media; by day 28,Ninety-two
same,patients with impaired tympanic membrane motility,acute otitis media; day 10 (93% at baseline),27%
same,subjects with other objective signs of tympanic membrane disease,acute otitis media; day 24–28,less than 10%
same,patients with impaired tympanic membrane motility,acute otitis media; day 24–28 (93% at baseline),12%
same,adverse event diarrhea,acute otitis media; single 30 mg/kg oral dose,3%
same,adverse event vomiting,acute otitis media; single 30 mg/kg oral dose,6%
same,clinical failure (and presumed persistence) rate,"H. influenzae [2]; MITT, thirty-nine evaluable H. influenzae strains",33.3%
same,clinical cure rate overall with PCR-identified H. influenzae cures added,"H. influenzae [2]; TOC, seventeen PCR-identified patients added",76.8%
same,clinical outcome at test of cure of patients with H. influenzae identified by PCR only,H. influenzae [2]; seventeen additional patients,clinically cured
